We go through five molecules from patent US7264811B2, “Purified active HCV NS2/3 protease” (priority 2000, dated 2007).

Where a SMILES comes first, the peptide text is derived from it.

This assay concerns the target T1, NS2/3 protease (Hepatitis C virus genotype 1b, UniProt P26663).
T1 construct: In a well defined assay system using purified NS2/3 (904-1206) and an optimized cleavage buffer; made in house; host or cells: E. coli BL21(DE3)pLysS
As to the kind of experiment: biochemical. Details: species or system Hepatitis C virus (HCV) genotype 1b. Conditions: for trans-cleavage of the peptide by NS2/3 protease: identical assay conditions, data not shown. Here is the method:
NS2/3 protease cleavage-site derived peptides were evaluated as potentially competing substrates (Table 1). NS2/3 protease cleavage-site derived peptides and NS4A-derived peptides were synthesized in-house using the standard solid-phase methodology or were made by Multiple Peptide Systems (San Diego, Calif.). Various concentrations of peptides were pre-incubated with 0.54 μM NS2/3 protease for 30 min at 23° C. in 50 mM Hepes, pH 7.0, and 50% (w/v) glycerol. The autocleavage reaction was initiated by addition of n-dodecyl-β-D-maltoside to a final concentration of 0.5%. The final DMSO content never exceeded 5% (v/v). The resulting mixture was then incubated for 3 h at 23° C. The reaction was stopped and quantified.

The term IC50 denotes the point on the concentration scale where inhibition reaches its midpoint. Higher therefore signals a need for much substance.

As for `CC[C@H](C)[C@H](NC(=O)[C@@H]1CCCN1C(=O)[C@H](C)NC(=O)[C@H](CC(C)C)NC(=O)[C@H](CC(C)C)NC(=O)[C@H](CCCNC(=N)N)NC(=O)[C@H](Cc1c[nH]c2ccccc12)NC(=O)CNC(=O)[C@@H](N)CCCCN)C(=O)N[C@H](C(=O)N[C@@H](C)C(=O)N[C@@H](Cc1ccc(O)cc1)C(=O)O)[C@@H](C)O` [Peptide 4, KGWRLL-APITAY], half-maximal inhibition (IC50) was put at 630 µM and the “trans-cleavage of the peptide by NS2/3 protease” value is listed as “no trans-cleavage”.

For the molecule `CC[C@H](C)[C@H](NC(=O)[C@@H]1CCCN1C(=O)[C@H](C)NC(=O)[C@H](CC(C)C)NC(=O)[C@H](CC(C)C)NC(=O)[C@H](CCCNC(=N)N)NC(=O)[C@H](Cc1c[nH]c2ccccc12)NC(=O)CNC(=O)[C@H](CCC(N)=O)NC(=O)CNC(=O)[C@H](CCC(=O)O)NC(=O)[C@H](Cc1ccccc1)NC(=O)[C@@H](N)CO)C(=O)N[C@H](C(=O)N[C@@H](C)C(=O)N[C@@H](Cc1ccc(O)cc1)C(=O)N[C@@H](CO)C(=O)N[C@@H](CCC(N)=O)C(=O)N[C@@H](CCC(N)=O)C(=O)N[C@H](C(=O)O)[C@@H](C)O)[C@@H](C)O` [Peptide 1, SFEGQGWRLL-APITAYSQQT], the half-maximal inhibitory concentration (IC50) was 270 µM and the “trans-cleavage of the peptide by NS2/3 protease” value is “no trans-cleavage”.

Consider `CC[C@H](C)[C@H](NC(=O)[C@@H]1CCCN1C(=O)[C@H](C)N)C(=O)N[C@H](C(=O)N[C@@H](C)C(=O)N[C@@H](Cc1ccc(O)cc1)C(=O)O)[C@@H](C)O` [Peptide 5, APITAY] (H-APITAY-OH), for which it took 1000 µM to reach half-maximal inhibition (IC50).

Take `CC(C)C[C@H](NC(=O)[C@H](CC(C)C)NC(=O)[C@H](CCCNC(=N)N)NC(=O)[C@H](Cc1c[nH]c2ccccc12)NC(=O)CNC(=O)[C@H](CCC(N)=O)NC(=O)CNC(=O)[C@H](CCC(=O)O)NC(=O)[C@H](Cc1ccccc1)NC(=O)[C@@H](N)CO)C(=O)O` [Peptide 2, SFEGQGWRLL] (H-SFEGQGWRLL-OH; N-terminus and C-terminus assumed): the IC50 was 90 µM.

The molecule `CC[C@H](C)[C@H](NC(=O)[C@@H]1CCCN1C(=O)[C@H](C)N)C(=O)N[C@H](C(=O)N[C@@H](C)C(=O)N[C@@H](Cc1ccc(O)cc1)C(=O)N[C@@H](CO)C(=O)N[C@@H](CCC(N)=O)C(=O)N[C@@H](CCC(N)=O)C(=O)N[C@H](C(=O)O)[C@@H](C)O)[C@@H](C)O` [Peptide 3, APITAYSQQT] (H-APITAYSQQT-OH) had an IC50 above 1000 µM.
